The values below come from paper PMC10958501, “4-Oxypiperidine Ethers as Multiple Targeting Ligands at Histamine H3 Receptors and Cholinesterases” (ACS Chemical Neuroscience, 2024).

The test has as its target T1, hH3R (Homo sapiens, UniProt Q9Y5N1).
T1 construct: expressed in transfected cells; membrane fractions
As to the kind of experiment: hH3R radioligand displacement assay in membrane fractions of HEK-293 cells. It is filed as binding. The note with it: [3H]Nα-methylhistamine displacement, HEK-293 membranes; 95% CI in brackets. As for the experimental part:
The compounds were tested against H3R by an ex vivo assay using isolated guinea pig ileum electrically stimulated to contraction, according to Vollinga et al.[47] The pA2-values were calculated according to Arunlakshana and Schild.[59] The radioligand-displacement assay was performed in membrane fractions of HEK-293 cells stably expressing hH3R. Cell cultivation and membrane preparation were performed according to Kottke et al.[48] The Ki values were calculated from the IC50 values using the Cheng–Prusoff equation.[60] The statistical calculations were performed on −log(Ki). The mean values and 95% confidence intervals were transformed to nanomolar concentrations. The inhibitory activities toward AChE and BuChE of novel ADS compounds were assessed in a spectrophotometric Ellman’s assay using electric eel AChE (eeAChE) and equine BuChE (eqBuChE).[57] Intracellular cAMP accumulation was measured with a homogeneous TR-FRET immunoassay using the LANCE Ultra cAMP kit (PerkinElmer) and HEK293 cells stably expressing the human histamine H3 receptor.[61] A more detailed description of the biological methods is presented in the Supporting Information. […]
considered statistically significant. The pA2 values were compared with the affinity of thioperamide (Sigma-Aldrich, St. Louis, MO, USA).
3.2. hH 3R radioligand displacement binding assay.
The radioligand displacement binding assay was performed in membrane fractions of HEK-293 cells stably expressing hH3R. Cell cultivation and membrane preparation was performed according to Kottke et al 6. For the radioligand displacement assay, radioactively labeled […]
assay volume was set to 200 µL. The compounds were tested in several appropriate concentrations between 100 µM and 0.1 nM. Pipetting was partly done by Freedom Evo® (Tecan). Pitolisant was used to determine non-specific binding at a concentration of 10 µM.
The membrane fraction (20 µg/well), test compounds, and radiolabeled ligand were incubated for 90 minutes at 25 °C while shaking. The bound radioligand was separated from the free radioligand by filtration through GF/B filters pre-treated with 0.3 % (m/v) polyethyleneimine using a cell harvester. Radioactivity was determined by liquid scintillation counting using a MicroBeta® Trilux (Perkin Elmer). The data was obtained in duplicates in at least three independent experiments. Non-specific binding was subtracted from the raw data to calculate specific binding values. The evaluation was performed with GraphPad Prism 6.1 (San Diego, CA, USA) using non-linear regression (one-site competition with a logarithmic scale). The Ki values were calculated from the IC50 values using the Cheng-Prusoff equation 7. The statistical calculations were performed on –log(Ki). […]
For orientation: Loss of bound radioactivity is the signal in a displacement assay; it reports binding, not function.

T1 sequence (Q9Y5N1 whole entry): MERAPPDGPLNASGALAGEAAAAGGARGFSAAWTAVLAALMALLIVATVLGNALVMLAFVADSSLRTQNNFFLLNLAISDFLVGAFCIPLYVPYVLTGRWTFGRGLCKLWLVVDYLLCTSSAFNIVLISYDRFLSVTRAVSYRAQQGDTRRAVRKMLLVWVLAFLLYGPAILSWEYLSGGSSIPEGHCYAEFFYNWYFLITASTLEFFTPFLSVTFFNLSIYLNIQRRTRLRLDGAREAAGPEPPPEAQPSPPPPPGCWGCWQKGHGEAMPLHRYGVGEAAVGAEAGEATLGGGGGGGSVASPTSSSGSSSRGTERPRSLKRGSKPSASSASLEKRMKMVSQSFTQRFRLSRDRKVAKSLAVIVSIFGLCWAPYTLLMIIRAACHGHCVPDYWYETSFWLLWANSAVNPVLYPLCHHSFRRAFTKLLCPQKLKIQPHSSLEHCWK

In general, Ki refers to the dissociation constant of the complex between target and ligand, obtained from inhibition or displacement. Low readings indicate a stronger hold on the target, high ones a looser hold on the target. Take `CCCN(C)Cc1ccc2cc(COC3CCN(Cc4ccccc4)CC3)ccc2c1` [ADS031, N-((6-(((1-Benzylpiperidin-4-yl)oxy)methyl)naphthalen-2-yl)methyl)-N-methylpropan-1-amine]: the Ki was 12.5 nM.
